In patent publication US20230126893A1, “[(1,4,5-TRISUBSTITUTED-1H-PYRAZOL-3-YL)SULFANYL]ACETIC ACID DERIVATIVES, SALTS THEREOF, AND USE THEREOF AS ACTIVE HERBICIDAL INGREDIENTS” (BAYER AKTIENGESELLSCHAFT, priority 2020, published 2023):

The compounds below were run on Echinochloa crus-galli (assay: Post-emergence herbicidal effect against ECHCG). Settings: 1280 g/ha, visual score after about 3 weeks, 100% = plants have died, 0% = like control plants.
Format: in vivo
Procedure, shortened: (§1)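 Visual score, % action vs untreated controls (100% = plants dead, 0% = like controls), read ~3 wk after spraying. Greenhouse plants in sandy loam, one-leaf stage, 2–3 wk post-sowing. WP/EC as aqueous spray, 600–800 l/ha, 0.2% wetting agent.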

Row | SMILES | Post-emergence action against ECHCG [%]
1 | CCOC(=O)CSc1nn(-c2ccccc2F)c(-c2cncc(Cl)c2)c1Br [II-007] | 100
2 | CCOC(=O)C[S+]([O-])c1nn(-c2ccccc2F)c(-c2cncc(F)c2)c1Br (stereo not drawn) [II-011] | 100

The compounds below were run on Veronica persica (assay: Post-emergence herbicidal effect against VERPE). Settings: 1280 g/ha, visual assessment about 3 weeks after treatment, 100% = plants have died, 0% = like control plants.
Format: in vivo
Procedure, shortened: as §1

Row | SMILES | Post-emergence action against VERPE [%]
3 | CCOC(=O)CSc1nn(-c2ccccc2F)c(-c2cncc(Cl)c2)c1Br [II-007] | 100
4 | CCOC(=O)C[S+]([O-])c1nn(-c2ccccc2F)c(-c2cncc(F)c2)c1Br (stereo not drawn) [II-011] | 90

The compounds below were run on Setaria viridis (assay: Post-emergence herbicidal effect against SETVI). Settings: 1280 g/ha, visual assessment about 3 weeks after treatment, 100% = plants have died, 0% = like control plants.
Format: in vivo
Procedure, shortened: as §1

Row | SMILES | Post-emergence action against SETVI [%]
5 | CCOC(=O)CSc1nn(-c2ccccc2F)c(-c2cncc(Cl)c2)c1Br [II-007] | 90
6 | CCOC(=O)C[S+]([O-])c1nn(-c2ccccc2F)c(-c2cncc(F)c2)c1Br (stereo not drawn) [II-011] | 100

The compounds below were run on Setaria viridis (assay: Pre-emergence herbicidal effect against SETVI). Settings: 1280 g/ha, visual score after 3 weeks, 100% = plants have died, 0% = like control plants.
Format: in vivo
Procedure, shortened: (§2)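 Pre-emergence soil-surface spray, WP/EC formulations in water at 600 to 800 L/ha plus 0.2% wetting agent, sandy loam, greenhouse, visual % damage vs untreated at 3 weeks (100% = plants dead, 0% = like control).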

Row | SMILES | Pre-emergence action against SETVI [%]
7 | CCOC(=O)CSc1nn(-c2ccccc2F)c(-c2cncc(Cl)c2)c1Br [II-007] | 100
8 | CCOC(=O)C[S+]([O-])c1nn(-c2ccccc2F)c(-c2cncc(F)c2)c1Br (stereo not drawn) [II-011] | 100

What follows are compounds tested on Abutylon threophrasti (assay: Post-emergence herbicidal effect against ABUTH). Settings: 1280 g/ha, visual assessment about 3 weeks after treatment, 100% = plants have died, 0% = like control plants.
Format: in vivo
Procedure, shortened: as §1

Row | SMILES | Post-emergence action against ABUTH [%]
9 | CCOC(=O)CSc1nn(-c2ccccc2F)c(-c2cncc(Cl)c2)c1Br [II-007] | 90
10 | CCOC(=O)C[S+]([O-])c1nn(-c2ccccc2F)c(-c2cncc(F)c2)c1Br (stereo not drawn) [II-011] | 90

The compounds below were run on Abutylon threophrasti (assay: Pre-emergence herbicidal effect against ABUTH). Settings: 1280 g/ha, visual score after 3 weeks, 100% = plants have died, 0% = like control plants.
Format: in vivo
From the text: (§3) 1. Pre-emergence herbicidal effect and crop plant compatibility Seeds of monocotyledonous and dicotyledonous weed plants and crop plants are laid out in sandy loam soil in wood-fibre pots and covered with soil. The compounds of the invention, formulated in the form of wettable powders (WP) or as emulsion concentrates (EC), are then applied to the surface of the covering soil as aqueous suspension or emulsion at a water application rate equating to 600 to 800 L/ha with addition of 0.2% wetting agent. After the treatment, the pots are placed in a greenhouse and kept under good growth conditions for the trial plants. The damage to the test plants is scored visually after a test period of 3 weeks by comparison with untreated controls (herbicidal activity in percent (%): 100% activity=the plants have died, 0% activity=like control plants). [table]

Row | SMILES | Pre-emergence action against ABUTH [%]
11 | CCOC(=O)CSc1nn(-c2ccccc2F)c(-c2cncc(Cl)c2)c1Br [II-007] | 90
12 | CCOC(=O)C[S+]([O-])c1nn(-c2ccccc2F)c(-c2cncc(F)c2)c1Br (stereo not drawn) [II-011] | 90

What follows are compounds tested on Echinochloa crus-galli (assay: Pre-emergence herbicidal effect against ECHCG). Settings: 1280 g/ha, visual score after 3 weeks, 100% = plants have died, 0% = like control plants.
Format: in vivo
Procedure, shortened: as §2

Row | SMILES | Pre-emergence action against ECHCG [%]
13 | CCOC(=O)CSc1nn(-c2ccccc2F)c(-c2cncc(Cl)c2)c1Br [II-007] | 100
14 | CCOC(=O)C[S+]([O-])c1nn(-c2ccccc2F)c(-c2cncc(F)c2)c1Br (stereo not drawn) [II-011] | 100

What follows are compounds tested on Veronica persica (assay: Pre-emergence herbicidal effect against VERPE). Settings: 1280 g/ha, visual score after 3 weeks, 100% = plants have died, 0% = like control plants.
Format: in vivo
Procedure, shortened: as §2

Row | SMILES | Pre-emergence action against VERPE [%]
15 | CCOC(=O)CSc1nn(-c2ccccc2F)c(-c2cncc(Cl)c2)c1Br [II-007] | 100
16 | CCOC(=O)C[S+]([O-])c1nn(-c2ccccc2F)c(-c2cncc(F)c2)c1Br (stereo not drawn) [II-011] | 100

The compounds below were run on Tripleurospermum inodorum (assay: Pre-emergence herbicidal effect against MATIN). Settings: 1280 g/ha, visual score after 3 weeks, 100% = plants have died, 0% = like control plants.
Format: in vivo
Procedure, shortened: as §2

Row | SMILES | Pre-emergence action against MATIN [%]
17 | CCOC(=O)CSc1nn(-c2ccccc2F)c(-c2cncc(Cl)c2)c1Br [II-007] | 100
18 | CCOC(=O)C[S+]([O-])c1nn(-c2ccccc2F)c(-c2cncc(F)c2)c1Br (stereo not drawn) [II-011] | 100

The compounds below were run on Digitaria sanguinalis (assay: Pre-emergence herbicidal effect against DIGSA). Settings: 1280 g/ha, visual score after 3 weeks, 100% = plants have died, 0% = like control plants.
Format: in vivo
Procedure, shortened: as §2

Row | SMILES | Pre-emergence action against DIGSA [%]
19 | CCOC(=O)CSc1nn(-c2ccccc2F)c(-c2cncc(Cl)c2)c1Br [II-007] | 100
20 | CCOC(=O)C[S+]([O-])c1nn(-c2ccccc2F)c(-c2cncc(F)c2)c1Br (stereo not drawn) [II-011] | 100

What follows are compounds tested on Tripleurospermum inodorum (assay: Post-emergence herbicidal effect against MATIN). Settings: 1280 g/ha, visual assessment about 3 weeks after treatment, 100% = plants have died, 0% = like control plants.
Format: in vivo
Procedure, shortened: as §1

Row | SMILES | Post-emergence action against MATIN [%]
21 | CCOC(=O)CSc1nn(-c2ccccc2F)c(-c2cncc(Cl)c2)c1Br [II-007] | 100
22 | CCOC(=O)C[S+]([O-])c1nn(-c2ccccc2F)c(-c2cncc(F)c2)c1Br (stereo not drawn) [II-011] | 90

The compounds below were run on Stellaria media (assay: Pre-emergence herbicidal effect against STEME). Settings: 1280 g/ha, visual score after 3 weeks, 100% = plants have died, 0% = like control plants.
Format: in vivo
Procedure, shortened: as §2

Row | SMILES | Pre-emergence action against STEME [%]
23 | CCOC(=O)CSc1nn(-c2ccccc2F)c(-c2cncc(Cl)c2)c1Br [II-007] | 100
24 | CCOC(=O)C[S+]([O-])c1nn(-c2ccccc2F)c(-c2cncc(F)c2)c1Br (stereo not drawn) [II-011] | 100

What follows are compounds tested on Alopecurus myosuroides (assay: Post-emergence herbicidal effect against ALOMY). Settings: 1280 g/ha, visual score after about 3 weeks, 100% = plants have died, 0% = like control plants.
Format: in vivo
Procedure, shortened: as §1

Row | SMILES | Post-emergence action against ALOMY [%]
25 | CCOC(=O)CSc1nn(-c2ccccc2F)c(-c2cncc(Cl)c2)c1Br [II-007] | 100
26 | CCOC(=O)C[S+]([O-])c1nn(-c2ccccc2F)c(-c2cncc(F)c2)c1Br (stereo not drawn) [II-011] | 100

What follows are compounds tested on Amaranthus retroflexus (assay: Pre-emergence herbicidal effect against AMARE). Settings: 1280 g/ha, visual score after 3 weeks, 100% = plants have died, 0% = like control plants.
Format: in vivo
Procedure, shortened: as §2

Row | SMILES | Pre-emergence action against AMARE [%]
27 | CCOC(=O)CSc1nn(-c2ccccc2F)c(-c2cncc(Cl)c2)c1Br [II-007] | 100
28 | CCOC(=O)C[S+]([O-])c1nn(-c2ccccc2F)c(-c2cncc(F)c2)c1Br (stereo not drawn) [II-011] | 100

What follows are compounds tested on Lolium rigidum (assay: Pre-emergence herbicidal effect against LOLRI). Settings: 1280 g/ha, visual score after 3 weeks, 100% = plants have died, 0% = like control plants.
Format: in vivo
Procedure, shortened: as §2

Row | SMILES | Pre-emergence action against LOLRI [%]
29 | CCOC(=O)CSc1nn(-c2ccccc2F)c(-c2cncc(Cl)c2)c1Br [II-007] | 100
30 | CCOC(=O)C[S+]([O-])c1nn(-c2ccccc2F)c(-c2cncc(F)c2)c1Br (stereo not drawn) [II-011] | 100

Each compound was assayed on Bassia scoparia (assay: Post-emergence herbicidal effect against KCHSC). Settings: 1280 g/ha, visual assessment about 3 weeks after treatment, 100% = plants have died, 0% = like control plants.
Format: in vivo
Procedure, shortened: as §1

Row | SMILES | Post-emergence action against KCHSC [%]
31 | CCOC(=O)C[S+]([O-])c1nn(-c2ccccc2F)c(-c2cncc(F)c2)c1Br (stereo not drawn) [II-011] | 100

What follows are compounds tested on Poa annua (assay: Pre-emergence herbicidal effect against POAAN). Settings: 1280 g/ha, visual score after 3 weeks, 100% = plants have died, 0% = like control plants.
Format: in vivo
Procedure, shortened: as §2

Row | SMILES | Pre-emergence action against POAAN [%]
32 | CCOC(=O)CSc1nn(-c2ccccc2F)c(-c2cncc(Cl)c2)c1Br [II-007] | 100
33 | CCOC(=O)C[S+]([O-])c1nn(-c2ccccc2F)c(-c2cncc(F)c2)c1Br (stereo not drawn) [II-011] | 100

These compounds were tested on Amaranthus retroflexus (assay: Post-emergence herbicidal effect against AMARE). Settings: 1280 g/ha, visual assessment about 3 weeks after treatment, 100% = plants have died, 0% = like control plants.
Format: in vivo
Procedure, shortened: as §1

Row | SMILES | Post-emergence action against AMARE [%]
34 | CCOC(=O)CSc1nn(-c2ccccc2F)c(-c2cncc(Cl)c2)c1Br [II-007] | 100
35 | CCOC(=O)C[S+]([O-])c1nn(-c2ccccc2F)c(-c2cncc(F)c2)c1Br (stereo not drawn) [II-011] | 90

What follows are compounds tested on Digitaria sanguinalis (assay: Post-emergence herbicidal effect against DIGSA). Settings: 1280 g/ha, visual score after about 3 weeks, 100% = plants have died, 0% = like control plants.
Format: in vivo
Procedure, shortened: as §1

Row | SMILES | Post-emergence action against DIGSA [%]
36 | CCOC(=O)CSc1nn(-c2ccccc2F)c(-c2cncc(Cl)c2)c1Br [II-007] | 100
37 | CCOC(=O)C[S+]([O-])c1nn(-c2ccccc2F)c(-c2cncc(F)c2)c1Br (stereo not drawn) [II-011] | 100

Each compound was assayed on Bassia scoparia (assay: Pre-emergence herbicidal effect against KCHSC). Settings: 1280 g/ha, visual score after 3 weeks, 100% = plants have died, 0% = like control plants.
Format: in vivo
From the text: as §3

Row | SMILES | Pre-emergence action against KCHSC [%]
38 | CCOC(=O)CSc1nn(-c2ccccc2F)c(-c2cncc(Cl)c2)c1Br [II-007] | 100
39 | CCOC(=O)C[S+]([O-])c1nn(-c2ccccc2F)c(-c2cncc(F)c2)c1Br (stereo not drawn) [II-011] | 100

Each compound was assayed on Alopecurus myosuroides (assay: Pre-emergence herbicidal effect against ALOMY). Settings: 1280 g/ha, visual score after 3 weeks, 100% = plants have died, 0% = like control plants.
Format: in vivo
Procedure, shortened: as §2

Row | SMILES | Pre-emergence action against ALOMY [%]
40 | CCOC(=O)CSc1nn(-c2ccccc2F)c(-c2cncc(Cl)c2)c1Br [II-007] | 100
41 | CCOC(=O)C[S+]([O-])c1nn(-c2ccccc2F)c(-c2cncc(F)c2)c1Br (stereo not drawn) [II-011] | 100

Each compound was assayed on Poa annua (assay: Post-emergence herbicidal effect against POAAN). Settings: 1280 g/ha, visual assessment about 3 weeks after treatment, 100% = plants have died, 0% = like control plants.
Format: in vivo
Procedure, shortened: as §1

Row | SMILES | Post-emergence action against POAAN [%]
42 | CCOC(=O)CSc1nn(-c2ccccc2F)c(-c2cncc(Cl)c2)c1Br [II-007] | 100
43 | CCOC(=O)C[S+]([O-])c1nn(-c2ccccc2F)c(-c2cncc(F)c2)c1Br (stereo not drawn) [II-011] | 100

These compounds were tested on Stellaria media (assay: Post-emergence herbicidal effect against STEME). Settings: 1280 g/ha, visual assessment about 3 weeks after treatment, 100% = plants have died, 0% = like control plants.
Format: in vivo
Procedure, shortened: as §1

Row | SMILES | Post-emergence action against STEME [%]
44 | CCOC(=O)CSc1nn(-c2ccccc2F)c(-c2cncc(Cl)c2)c1Br [II-007] | 100
45 | CCOC(=O)C[S+]([O-])c1nn(-c2ccccc2F)c(-c2cncc(F)c2)c1Br (stereo not drawn) [II-011] | 100
